{"source": "paper PMC6220303", "about": "(EMBO Molecular Medicine, 2018)", "key": {"CSF Aβ40 and sAPPβ": {"test_system": "CSF Aβ40 and sAPPβ", "assay": "Human CSF APP metabolites after single dose (serial CSF sampling)", "format": "in vivo", "text": "We investigated CSF Aβ and sAPPβ levels in humans by serial CSF sampling via an intrathecal catheter. […] Under these conditions, where Aβ production has completely stopped, the curves most likely reflect the rate of physiological clearance of Aβ40 and sAPPβ from human CSF.\n(A) Changes in Aβ40 relative to baseline values. (B) Changes in sAPPβ relative to baseline values.\nHuman CSF was collected from an indwelling spinal catheter inserted into the lower spinal canal (in the single ascending dose (SAD) PD first in human (FIH) study) or by a lumbar puncture (in the multiple ascending dose (MAD) PD Phase I study and Phase IIa study), and by trained personnel at the site and as per their standard operating procedure (SOP). CSF Aβ38, Aβ40, Aβ42, sAPPα, and sAPPβ were quantified in human CSF with 0.2% (v/v) Tween®‐20 using validated sandwich‐based multiplexed electrochemiluminescence methods (MesoScale Discovery, […], MD, USA)."}, "H Nav 1.2": {"target": "H Nav 1.2 (Homo sapiens, UniProt Q99250)", "sequence (Q99250 whole entry)": "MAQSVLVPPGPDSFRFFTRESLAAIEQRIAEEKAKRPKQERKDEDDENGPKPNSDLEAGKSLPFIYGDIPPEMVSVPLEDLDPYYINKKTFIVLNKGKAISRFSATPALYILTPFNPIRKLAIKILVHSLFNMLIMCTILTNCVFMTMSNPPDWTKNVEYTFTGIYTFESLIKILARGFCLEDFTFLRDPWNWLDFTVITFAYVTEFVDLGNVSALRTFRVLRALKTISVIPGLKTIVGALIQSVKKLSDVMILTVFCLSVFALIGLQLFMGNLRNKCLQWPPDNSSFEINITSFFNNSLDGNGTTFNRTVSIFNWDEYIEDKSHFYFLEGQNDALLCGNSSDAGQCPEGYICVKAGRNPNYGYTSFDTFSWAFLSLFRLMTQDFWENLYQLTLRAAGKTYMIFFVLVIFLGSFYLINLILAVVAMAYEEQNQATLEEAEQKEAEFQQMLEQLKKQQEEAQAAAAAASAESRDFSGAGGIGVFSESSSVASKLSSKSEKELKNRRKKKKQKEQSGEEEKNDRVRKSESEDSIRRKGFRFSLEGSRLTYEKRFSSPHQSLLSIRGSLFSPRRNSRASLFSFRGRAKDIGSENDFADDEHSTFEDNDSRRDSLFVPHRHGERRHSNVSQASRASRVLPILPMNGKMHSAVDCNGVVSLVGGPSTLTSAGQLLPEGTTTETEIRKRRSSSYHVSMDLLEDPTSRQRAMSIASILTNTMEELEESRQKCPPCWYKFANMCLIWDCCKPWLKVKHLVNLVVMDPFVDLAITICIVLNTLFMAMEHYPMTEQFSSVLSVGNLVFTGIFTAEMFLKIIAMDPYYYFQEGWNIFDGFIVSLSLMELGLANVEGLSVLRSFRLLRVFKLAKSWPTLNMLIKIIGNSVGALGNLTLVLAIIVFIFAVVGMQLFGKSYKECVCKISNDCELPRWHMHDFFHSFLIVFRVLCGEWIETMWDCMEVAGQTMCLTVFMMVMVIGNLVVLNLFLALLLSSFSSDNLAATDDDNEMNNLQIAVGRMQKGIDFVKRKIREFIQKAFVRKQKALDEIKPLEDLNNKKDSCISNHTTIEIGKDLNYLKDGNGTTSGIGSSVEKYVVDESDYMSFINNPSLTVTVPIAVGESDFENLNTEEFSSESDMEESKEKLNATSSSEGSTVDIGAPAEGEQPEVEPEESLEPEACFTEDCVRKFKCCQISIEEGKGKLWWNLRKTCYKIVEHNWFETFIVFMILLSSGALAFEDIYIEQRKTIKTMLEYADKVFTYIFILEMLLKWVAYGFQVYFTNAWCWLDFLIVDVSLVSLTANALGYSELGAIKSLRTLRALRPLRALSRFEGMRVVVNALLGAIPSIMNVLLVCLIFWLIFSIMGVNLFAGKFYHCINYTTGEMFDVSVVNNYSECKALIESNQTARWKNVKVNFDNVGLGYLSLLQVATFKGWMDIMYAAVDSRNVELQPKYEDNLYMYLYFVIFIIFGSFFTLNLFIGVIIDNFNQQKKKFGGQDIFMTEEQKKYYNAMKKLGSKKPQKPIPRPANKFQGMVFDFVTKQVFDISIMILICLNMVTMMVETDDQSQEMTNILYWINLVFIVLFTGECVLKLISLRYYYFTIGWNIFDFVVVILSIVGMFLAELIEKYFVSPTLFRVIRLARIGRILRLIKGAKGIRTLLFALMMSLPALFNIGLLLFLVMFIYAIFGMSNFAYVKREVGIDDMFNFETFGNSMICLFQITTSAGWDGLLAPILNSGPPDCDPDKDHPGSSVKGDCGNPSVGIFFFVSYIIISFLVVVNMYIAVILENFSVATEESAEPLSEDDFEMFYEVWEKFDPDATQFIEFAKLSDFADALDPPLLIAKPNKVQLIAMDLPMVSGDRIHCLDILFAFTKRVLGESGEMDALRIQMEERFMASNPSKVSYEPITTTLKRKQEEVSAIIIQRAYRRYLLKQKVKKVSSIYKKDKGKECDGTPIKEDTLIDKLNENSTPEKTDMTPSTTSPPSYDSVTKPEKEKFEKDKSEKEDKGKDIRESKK", "assay": "Functional assay", "format": "biochemical", "details": "read-out: Inhibition at 10 µM", "experimental": "(§1) Cellular Aβ release assays were done in CHO cells stably transfected with human wild‐type and human APP were done as described (Neumann et al, 2015). Determinations of logD, pKa, and binding to brain homogenates were done internally at Novartis, Basel. Plasma protein binding was determined by equilibrium dialysis using diluted plasma from the corresponding species. MDR‐1‐MDCK cells were obtained from Prof. A. Berns, Netherlands Cancer Institute, Amsterdam NL, and bi‐directional transport measurements were done as described (Rueeger et al, 2011). Receptor binding assays were done against an internal receptor panel and externally at Ricerca Biosciences, Peitou, Taiwan. In vitro binding and cellular patch clamp assays for hERG were done at Preclinical Safety, Novartis, Basel."}, "[1]": {"target": "Monoamine transporter VMAT2 (Rattus norvegicus, UniProt Q01827)", "sequence (Q01827 whole entry)": "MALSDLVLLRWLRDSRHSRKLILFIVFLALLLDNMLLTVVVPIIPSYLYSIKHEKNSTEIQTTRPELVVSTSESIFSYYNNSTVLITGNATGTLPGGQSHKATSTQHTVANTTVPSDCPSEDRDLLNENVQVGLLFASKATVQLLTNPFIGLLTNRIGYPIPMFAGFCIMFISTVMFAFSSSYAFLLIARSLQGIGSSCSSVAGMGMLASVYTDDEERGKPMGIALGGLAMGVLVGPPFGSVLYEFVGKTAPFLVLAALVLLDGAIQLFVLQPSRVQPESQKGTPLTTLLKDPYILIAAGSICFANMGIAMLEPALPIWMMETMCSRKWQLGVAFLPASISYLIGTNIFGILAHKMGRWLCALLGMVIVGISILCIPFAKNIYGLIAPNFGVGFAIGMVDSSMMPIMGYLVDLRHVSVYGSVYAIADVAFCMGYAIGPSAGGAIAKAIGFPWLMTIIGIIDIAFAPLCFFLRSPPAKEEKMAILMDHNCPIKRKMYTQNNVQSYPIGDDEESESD", "assay": "Functional assay", "format": "biochemical", "details": "read-out: Inhibition at 10 µM", "experimental": "as §1"}, "[2]": {"test_system": "healthy participants ≥ 60 years", "assay": "Adverse events after once-daily dosing over two weeks (Appendix Table S7)", "format": "in vivo, human"}, "[3]": {"test_system": "healthy participants ≥ 60 years", "assay": "Adverse events after single dose (Appendix Table S6)", "format": "in vivo, human", "text": "For further details, see the Appendix Table S10 in Appendix and the accompanying clinical protocols synopsis (Appendix Table S11).\nAppendix Table S3. Overview of completed clinical studies with CNP520\nStudy description Population No. of Participants Dose/Frequency […]\nFirst-in-human, randomized, 18-55 yrs 38 / 14 Single dose (10, 30, 90, […]\ncontrolled, single and multiple CNP520 vs placebo) ascending oral dose study to Single dose (10, 90, 300,"}, "[4]": {"details": "after a 750 mg CNP520 dose, n=6"}}, "data": [{"molecule": "C[C@@]1(c2nc(NC(=O)c3ncc(C(F)(F)F)cc3Cl)ccc2F)CO[C@@](C)(C(F)(F)F)C(N)=N1", "note": "[CNP520]", "values": [{"measurement": "maximum reduction in CSF Aβ40 from baseline", "setting": "CSF Aβ40 and sAPPβ; 750-mg single dose, mean ± SD", "result": "79.1 ± 8.9", "unit": "%"}, {"measurement": "first-order rate constant k, Aβ40 in human CSF", "setting": "CSF Aβ40 and sAPPβ; [4]", "result": "0.068 ± 0.002", "unit": "h⁻¹"}, {"measurement": "first-order rate constant k, sAPPβ in human CSF", "setting": "CSF Aβ40 and sAPPβ; [4]", "result": "0.043 ± 0.004", "unit": "h⁻¹"}, {"measurement": "inhibition at 10 µM", "setting": "H Nav 1.2", "result": 23.6, "unit": "%"}, {"measurement": "inhibition at 10 µM", "setting": "[1]", "result": 80, "unit": "%"}, {"measurement": "AE incidence: Ear and labyrinth disorders", "setting": "[2]; 10 mg once daily, N = 9", "result": "0 (0.0) n (%)"}, {"measurement": "AE incidence: Eye disorders", "setting": "[2]; 10 mg once daily, N = 9", "result": "1 (11.1) n (%)"}, {"measurement": "AE incidence: Gastrointestinal disorders", "setting": "[2]; 10 mg once daily, N = 9", "result": "3 (33.3) n (%)"}, {"measurement": "AE incidence: General disorders and administration site conditions", "setting": "[2]; 10 mg once daily, N = 9", "result": "0 (0.0) n (%)"}, {"measurement": "AE incidence: Infections and infestations", "setting": "[2]; 10 mg once daily, N = 9", "result": "2 (22.2) n (%)"}, {"measurement": "AE incidence: Metabolism and nutrition disorders", "setting": "[2]; 10 mg once daily, N = 9", "result": "0 (0.0) n (%)"}, {"measurement": "AE incidence: Nervous system disorders", "setting": "[2]; 10 mg once daily, N = 9", "result": "4 (44.4) n (%)"}, {"measurement": "AE incidence: Psychiatric disorders", "setting": "[2]; 10 mg once daily, N = 9", "result": "1 (11.1) n (%)"}, {"measurement": "AE incidence: Renal and urinary disorders", "setting": "[2]; 10 mg once daily, N = 9", "result": "0 (0.0) n (%)"}, {"measurement": "AE incidence: Skin and subcutaneous tissue disorders", "setting": "[2]; 10 mg once daily, N = 9", "result": "0 (0.0) n (%)"}, {"measurement": "AE incidence: Ear and labyrinth disorders", "setting": "[2]; 30 mg once daily, N = 9", "result": "1 (11.1) n (%)"}, {"measurement": "AE incidence: Eye disorders", "setting": "[2]; 30 mg once daily, N = 9", "result": "0 (0.0) n (%)"}, {"measurement": "AE incidence: Gastrointestinal disorders", "setting": "[2]; 30 mg once daily, N = 9", "result": "2 (22.2) n (%)"}, {"measurement": "AE incidence: General disorders and administration site conditions", "setting": "[2]; 30 mg once daily, N = 9", "result": "1 (11.1) n (%)"}, {"measurement": "AE incidence: Infections and infestations", "setting": "[2]; 30 mg once daily, N = 9", "result": "2 (22.2) n (%)"}, {"measurement": "AE incidence: Metabolism and nutrition disorders", "setting": "[2]; 30 mg once daily, N = 9", "result": "0 (0.0) n (%)"}, {"measurement": "AE incidence: Nervous system disorders", "setting": "[2]; 30 mg once daily, N = 9", "result": "0 (0.0) n (%)"}, {"measurement": "AE incidence: Psychiatric disorders", "setting": "[2]; 30 mg once daily, N = 9", "result": "0 (0.0) n (%)"}, {"measurement": "AE incidence: Respiratory, thoracic and mediastinal disorders", "setting": "[2]; 30 mg once daily, N = 9", "result": "0 (0.0) n (%)"}, {"measurement": "AE incidence: Skin and subcutaneous tissue disorders", "setting": "[2]; 30 mg once daily, N = 9", "result": "0 (0.0) n (%)"}, {"measurement": "Participants with any AE(s)", "setting": "[2]; 30 mg once daily, N = 9", "result": "5 (55.6) n (%)"}, {"measurement": "AE incidence: Ear and labyrinth disorders", "setting": "[2]; 90 mg once daily, N = 9", "result": "0 (0.0) n (%)"}, {"measurement": "AE incidence: Eye disorders", "setting": "[2]; 90 mg once daily, N = 9", "result": "1 (11.1) n (%)"}, {"measurement": "AE incidence: Gastrointestinal disorders", "setting": "[2]; 90 mg once daily, N = 9", "result": "3 (33.3) n (%)"}, {"measurement": "AE incidence: General disorders and administration site conditions", "setting": "[2]; 90 mg once daily, N = 9", "result": "0 (0.0) n (%)"}, {"measurement": "AE incidence: Infections and infestations", "setting": "[2]; 90 mg once daily, N = 9", "result": "2 (22.2) n (%)"}, {"measurement": "AE incidence: Metabolism and nutrition disorders", "setting": "[2]; 90 mg once daily, N = 9", "result": "0 (0.0) n (%)"}, {"measurement": "AE incidence: Nervous system disorders", "setting": "[2]; 90 mg once daily, N = 9", "result": "1 (11.1) n (%)"}, {"measurement": "AE incidence: Psychiatric disorders", "setting": "[2]; 90 mg once daily, N = 9", "result": "0 (0.0) n (%)"}, {"measurement": "AE incidence: Renal and urinary disorders", "setting": "[2]; 90 mg once daily, N = 9", "result": "1 (11.1) n (%)"}, {"measurement": "AE incidence: Respiratory, thoracic and mediastinal disorders", "setting": "[2]; 90 mg once daily, N = 9", "result": "1 (11.1) n (%)"}, {"measurement": "AE incidence: Skin and subcutaneous tissue disorders", "setting": "[2]; 90 mg once daily, N = 9", "result": "0 (0.0) n (%)"}, {"measurement": "Participants with any AE(s)", "setting": "[2]; 90 mg once daily, N = 9", "result": "6 (66.7) n (%)"}, {"measurement": "AE incidence: Eye disorders", "setting": "[2]; 300 mg once daily, N = 8", "result": "0 (0.0) n (%)"}, {"measurement": "AE incidence: Gastrointestinal disorders", "setting": "[2]; 300 mg once daily, N = 8", "result": "2 (25.0) n (%)"}, {"measurement": "AE incidence: General disorders and administration site conditions", "setting": "[2]; 300 mg once daily, N = 8", "result": "1 (12.5) n (%)"}, {"measurement": "AE incidence: Infections and infestations", "setting": "[2]; 300 mg once daily, N = 8", "result": "0 (0.0) n (%)"}, {"measurement": "AE incidence: Metabolism and nutrition disorders", "setting": "[2]; 300 mg once daily, N = 8", "result": "2 (25.0) n (%)"}, {"measurement": "AE incidence: Nervous system disorders", "setting": "[2]; 300 mg once daily, N = 8", "result": "3 (37.5) n (%)"}, {"measurement": "AE incidence: Psychiatric disorders", "setting": "[2]; 300 mg once daily, N = 8", "result": "0 (0.0) n (%)"}, {"measurement": "AE incidence: Renal and urinary disorders", "setting": "[2]; 300 mg once daily, N = 8", "result": "1 (12.5) n (%)"}, {"measurement": "AE incidence: Respiratory, thoracic and mediastinal disorders", "setting": "[2]; 300 mg once daily, N = 8", "result": "0 (0.0) n (%)"}, {"measurement": "AE incidence: Skin and subcutaneous tissue disorders", "setting": "[2]; 300 mg once daily, N = 8", "result": "2 (25.0) n (%)"}, {"measurement": "Participants with any AE(s)", "setting": "[2]; 300 mg once daily, N = 8", "result": "6 (75.0) n (%)"}, {"measurement": "AE incidence: Blood and lymphatic system disorders", "setting": "[3]; single dose 300 mg, N = 10", "result": "1 (10.0) n (%)"}, {"measurement": "AE incidence: Cardiac disorders", "setting": "[3]; single dose 300 mg, N = 10", "result": "1 (10.0) n (%)"}, {"measurement": "AE incidence: Gastrointestinal disorders", "setting": "[3]; single dose 300 mg, N = 10", "result": "4 (40.0) n (%)"}, {"measurement": "AE incidence: General disorders and administration site conditions", "setting": "[3]; single dose 300 mg, N = 10", "result": "3 (30.0) n (%)"}, {"measurement": "AE incidence: Nervous system disorders", "setting": "[3]; single dose 300 mg, N = 10", "result": "4 (40.0) n (%)"}, {"measurement": "AE incidence: Renal and urinary disorders", "setting": "[3]; single dose 300 mg, N = 10", "result": "0 (0.0) n (%)"}, {"measurement": "AE incidence: Respiratory, thoracic and mediastinal disorders", "setting": "[3]; single dose 300 mg, N = 10", "result": "2 (20.0) n (%)"}, {"measurement": "AE incidence: Skin and subcutaneous tissue disorders", "setting": "[3]; single dose 300 mg, N = 10", "result": "3 (30.0) n (%)"}, {"measurement": "Participants with at least one AE", "setting": "[3]; single dose 300 mg, N = 10", "result": "10 (100.0) n (%)"}, {"measurement": "AE incidence: Blood and lymphatic system disorders", "setting": "[3]; single dose 750 mg, N = 11", "result": "0 (0.0) n (%)"}, {"measurement": "AE incidence: Cardiac disorders", "setting": "[3]; single dose 750 mg, N = 11", "result": "0 (0.0) n (%)"}, {"measurement": "AE incidence: Gastrointestinal disorders", "setting": "[3]; single dose 750 mg, N = 11", "result": "3 (27.3) n (%)"}, {"measurement": "AE incidence: General disorders and administration site conditions", "setting": "[3]; single dose 750 mg, N = 11", "result": "3 (27.3) n (%)"}, {"measurement": "AE incidence: Nervous system disorders", "setting": "[3]; single dose 750 mg, N = 11", "result": "7 (63.6) n (%)"}, {"measurement": "AE incidence: Renal and urinary disorders", "setting": "[3]; single dose 750 mg, N = 11", "result": "1 (9.1) n (%)"}, {"measurement": "AE incidence: Respiratory, thoracic and mediastinal disorders", "setting": "[3]; single dose 750 mg, N = 11", "result": "0 (0.0) n (%)"}, {"measurement": "AE incidence: Skin and subcutaneous tissue disorders", "setting": "[3]; single dose 750 mg, N = 11", "result": "1 (9.1) n (%)"}, {"measurement": "Participants with at least one AE", "setting": "[3]; single dose 750 mg, N = 11", "result": "9 (81.8) n (%)"}]}]}
